# Tests used:
# integrin-αvβ1 = integrin-αvβ1 (Homo sapiens, UniProt P05556+P06756); assay: SPR binding of peptides to integrin-αvβ1 (Biacore 8K+); details: 25°C, Figure 7E
# Method: The Biacore 8K+ system (GE Healthcare) was used at 25°C. The ligand integrin-αvβ1 (1 mg/mL) was routinely coupled to the sensor chip (Series S Sensor Chip CM5, Cytiva, #100530). The peptide samples SDC4_87-131 and CS-1, -2, -3, -4, -8, -9, -10 were dissolved in PBS, and then, the samples with different concentration gradients (0.78, 1.56, 3.125, 6.25, 12.5, 25, 50, 100 μM) were injected, respectively, under the driving of buffer PBST (PBS + 0.05% Tween-20). The signal intensity was quantified in relative units (RU), and binding affinity was determined using the dissociation constant (Kd). After the experiment, 10 mM glycine-HCl buffer solution (pH = 2) was selected to regenerate the chip surface.
# integrin-β1 [1] = assay: Flow cytometry of integrin-β1 activation (9EG7) in fibroblast; format: cell-based, mouse; details: SDC4_87-131 100 nM, C8 20 nM, 48 h
# Method: (§1) Decellularized lung ECM (dECM) was prepared as described in previous study. 2 × 10^5 cells/mL NIH3T3 cells (mouse […], purchased from the Stem Cell Bank of the Chinese Academy of Sciences, Shanghai, China) were seeded on the dECM slices attached to the bottom of the culture dish and cultured in DMEM medium containing 0.5% fetal bovine serum (Gibco, Waltham, MA, USA) at 37°C and 5% CO2.
# (§2) The single cell suspension of mouse lung tissue was obtained by grinding. After the remaining red blood cells were lysed with ACK Lysis Buffer (TBD, NH4CL2009), 1×10^6 cells/100 μL of cells were added with Fixable Viability Stain 780 (BD, #565388). After incubation at room temperature in the dark for 10-15 min, the suspension was washed twice with PBS containing 1%-2% FBS. The FCR antibody TruStain FcX™ PLUS (BD, #156603) was added to the cell suspension at a ratio of 0.25 μL:100 μL and blocked on ice for 10 min. Then, the antibody was incubated at an appropriate concentration and time according to the manufacturer's instructions. Antibodies include CD45 (Biolegend, #157619), CD140a (Thermo Fisher, #25-1401-82), SDC-4 (Sino Biological, #50726-R112-P), SP-C (Bioss, #bs-10067R-FITC) and Integrin-β1 (9Eg7, BD, 553715), and AF647 anti-Rat (CST, #4418S) was used as the secondary antibody. After incubation, cells were washed and resuspended, and detected using LSRFortessaX-20 (BD).
# SDC4/integrin-αv [2] = assay: Duolink-PLA, SDC4/integrin-αv extracellular interaction in fibroblast; format: cell-based, mouse; details: SDC4_87-131 100 nM; with Anti-SDC4(93-121), n=5
# Method: as §1
# (§3) Cells or tissue slices were attached to slides, fixed and permeabilized and blocked with Duolink^TM (Merck, MO, USA) blocking buffer. Antibodies against the extracellular domain of SDC4 (5G9, mouse IgG, SCBT #sc-12766), integrin-αv (rabbit IgG, CST #4711) and integrin-β1 (rabbit IgG, CST #34971) were diluted and added to the samples and incubated overnight at 4°C. After washing, PLUS and MINUS (proximity ligation assay, PLA) probes were added to the samples and incubated at 37°C for 1 h. After washing, the samples were sequentially incubated with PLUS and MINUS (PLA) probes, ligation buffer and amplification buffer containing polymerase. Finally, the samples were mounted with in situ mounting medium containing DAPI. Images were acquired using a Leica SP5 confocal microscope (Leica Biosystems, Germany) and quantitative analysis was performed using ImageJ software.
# SDC4/integrin-β1 = assay: Duolink-PLA, SDC4/integrin-β1 extracellular interaction in fibroblast; format: cell-based, mouse; details: SDC4_87-131 100 nM; with Anti-SDC4(93-121), n=5
# Method: as §1, §3
# SDC4/integrin-αv [3] = assay: Duolink-PLA, SDC4/integrin-αv interaction in BLM lung tissue; format: in vivo, mouse; details: SDC4_87-131 1 mg/kg ITD q3d; C8 10 mg/kg IP qd; Anti-SDC4(93-121) 8 mg/kg ITD day 3 and 10; n=5
# Method: (§4) After the mice were anesthetized (1% sodium pentobarbital 50 mg/kg was injected intraperitoneally), 150 μL of bleomycin (BLM, 5 mg/mL, BIO-000001) was inhaled into the lungs of the mice by tracheal inhalation instillation. One day later, the mice were randomly divided into model and drug treatment groups, and the mice in the control group were only subjected to saline inhalation.
# as §3
# [4] = test system: BLM-induced PF, C57BL/6J mice; assay: BLM-induced PF in mice: RT-PCR of lung tissue; format: in vivo, mouse; details: BLM lung tissue
# Method: as §4
# (§5) Based on the dosage of SDC2 fragment peptide and our experimental results (Supplementary Figure S10A and B), the dosage schedule of SDC4_87-131 was set as follows: starting on the third day after BLM inhalation, 1 mg/kg, administered via trachea infusion once every three days. And Anti-SDC4(93-121) 8 mg/kg was administered on the third and tenth days (reference dosage).
# Total RNA was extracted from cells or lung tissue (10 mg) using Trizol reagent, and mRNA was reverse transcribed into cDNA using HiScript® II QRT SuperMix for qPCR (Vazyme, #R223-01). Real-time fluorescence quantitative PCR (RT-PCR) was performed using Hieff® qPCR SYB Green Master Mix (YEASEN, #11201ES08) to obtain the Ct value. The 2^−ΔΔCt method was used to obtain the relative expression level of mRNA in each group. Primers (Table 1) were purchased from Sangon Biotech.
# [5] = test system: BLM-induced PF, C57BL/6J mice; assay: BLM-induced PF in mice: lung index and blood cell count; format: in vivo, mouse; details: n=6
# Method: as §4, §5
# At the termination of the experiment, the mice were euthanized and their lung tissues were taken after the eyeballs were removed and blood was collected. Within 2 hours after blood collection, the blood samples were tested on the URIT-2900VetPLUS automatic animal blood cell analyzer.
# integrin-β1 [6] = assay: BLM-induced PF in mice: flow cytometry of integrin-β1 activation in lung tissue; format: in vivo, mouse
# Method: as §4, §2
# cell migration = details: ref [39]; cited from earlier work
# Description: SDC4_87-131 is a synthetic peptide of the N87-M131 segment of the extracellular domain of SDC4 (Supplementary Figure S9A). […] Comparing the effects of ... || Syndecans and integrins collaboratively regulate FA formation and cell adhesion. PKCα is known to modulate integrin-mediated FAK phosphorylation and FA assembly. Inhibition of PKCα not only blocks NF-κB activation but also reduces FAK phosphorylation. Conversely, FAK activation can induce NF-κB activity, highlighting a bidirectional crosstalk between the SDC4/PKCα/NF-κB and integrin/FAK pathways.
# Sequence of integrin-αvβ1 (P06756 31-992 limits assumed): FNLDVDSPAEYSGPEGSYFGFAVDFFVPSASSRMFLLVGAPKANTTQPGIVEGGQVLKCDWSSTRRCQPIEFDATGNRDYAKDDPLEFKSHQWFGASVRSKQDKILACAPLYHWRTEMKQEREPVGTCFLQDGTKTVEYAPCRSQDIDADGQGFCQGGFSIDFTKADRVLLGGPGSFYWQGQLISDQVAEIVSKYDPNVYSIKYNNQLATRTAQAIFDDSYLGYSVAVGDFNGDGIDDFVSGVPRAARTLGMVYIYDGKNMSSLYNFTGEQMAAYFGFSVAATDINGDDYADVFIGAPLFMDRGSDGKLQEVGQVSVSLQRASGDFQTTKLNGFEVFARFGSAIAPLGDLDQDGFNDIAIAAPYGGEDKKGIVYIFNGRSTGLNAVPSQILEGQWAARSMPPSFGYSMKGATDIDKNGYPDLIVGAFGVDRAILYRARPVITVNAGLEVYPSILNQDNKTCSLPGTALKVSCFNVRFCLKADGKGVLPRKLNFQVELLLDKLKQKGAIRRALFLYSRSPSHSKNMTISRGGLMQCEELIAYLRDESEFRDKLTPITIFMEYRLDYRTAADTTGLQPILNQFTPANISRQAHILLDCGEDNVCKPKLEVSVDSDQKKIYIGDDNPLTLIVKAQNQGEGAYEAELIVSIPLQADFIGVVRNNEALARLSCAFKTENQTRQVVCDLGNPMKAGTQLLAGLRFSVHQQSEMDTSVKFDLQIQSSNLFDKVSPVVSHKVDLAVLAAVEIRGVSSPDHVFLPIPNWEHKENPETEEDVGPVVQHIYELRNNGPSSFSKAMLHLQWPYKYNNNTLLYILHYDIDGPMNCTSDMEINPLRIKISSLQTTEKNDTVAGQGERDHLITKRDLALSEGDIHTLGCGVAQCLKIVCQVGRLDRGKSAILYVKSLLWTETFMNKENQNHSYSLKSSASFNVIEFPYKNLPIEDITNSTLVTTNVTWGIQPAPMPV
# Sequence of integrin-αvβ1 (P05556 21-728 partner limits assumed): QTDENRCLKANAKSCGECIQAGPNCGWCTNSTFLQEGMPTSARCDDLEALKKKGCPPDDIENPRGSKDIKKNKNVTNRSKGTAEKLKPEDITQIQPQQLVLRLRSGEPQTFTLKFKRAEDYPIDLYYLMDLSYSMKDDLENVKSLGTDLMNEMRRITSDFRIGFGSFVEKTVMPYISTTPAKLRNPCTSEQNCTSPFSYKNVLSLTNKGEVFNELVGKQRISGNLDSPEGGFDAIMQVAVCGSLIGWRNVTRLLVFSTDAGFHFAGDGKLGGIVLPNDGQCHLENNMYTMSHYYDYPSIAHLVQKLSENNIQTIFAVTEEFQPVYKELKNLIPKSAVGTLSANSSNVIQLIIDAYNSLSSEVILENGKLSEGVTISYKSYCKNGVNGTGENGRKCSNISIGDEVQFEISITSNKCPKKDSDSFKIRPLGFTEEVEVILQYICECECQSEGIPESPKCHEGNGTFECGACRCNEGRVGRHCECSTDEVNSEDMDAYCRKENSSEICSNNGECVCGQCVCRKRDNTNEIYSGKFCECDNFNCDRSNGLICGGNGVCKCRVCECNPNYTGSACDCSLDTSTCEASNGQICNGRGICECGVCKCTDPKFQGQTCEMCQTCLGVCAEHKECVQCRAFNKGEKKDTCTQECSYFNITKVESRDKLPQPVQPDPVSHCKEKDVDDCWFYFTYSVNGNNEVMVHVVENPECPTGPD
substance,measurement,setting,value
Ac-NHIPERAGSGSQVPTEPKKLEENEVIPKRISPVEESEDVSNKVSM-NH2 [SDC4_87-131],affinity (in words),integrin-αvβ1,nM level
same,dECM-PF-induced integrin-β1 activation,integrin-β1 [1],significantly inhibited dECM-PF-induced integrin-β1 activation
same,integrin-αv/SDC4 interaction induced by dECM-PF,SDC4/integrin-αv [2],significantly reduce
same,integrin-β1/SDC4 interaction induced by dECM-PF,SDC4/integrin-β1,significantly reduce
same,interaction of integrin-αv and SDC4 in BLM lung tissue,SDC4/integrin-αv [3],could reduce the interaction of integrin-αv and SDC4
same,"mRNA levels of α-SMA, FN, Col I, TGF-β1, IL-1β, IL-6 and TNF-α","[4]; 1 mg/kg ITD q3d, n=4–6",significantly reduced
same,IL-6 downregulation vs C8,[4]; n=4–5,stronger effect in downregulating IL-6 than C8
same,downregulating effect (blood leukocyte count) vs C8,[5]; Figure 5F,notably stronger than that of C8
same,lung index and blood leukocyte count,"[5]; SDC4_87-131, C8, Anti-SDC4(93-121) groups",could reduce the lung index and blood leukocyte count
same,integrin-β1 activation in nonimmune cells (CD45^-),integrin-β1 [6],abolished
same,integrin-β1 activation effect vs C8 and Anti-SDC4(93-121),integrin-β1 [6]; CD45^- cells,equivalent to the effects of C8 and Anti-SDC4(93-121)
same,cell adhesion and migration,cell migration,reduces cell adhesion and migration
same,cell migration,cell migration,can inhibit cell migration comparably to the exogenous full-length SDC4

# Source: publication PMC12313019, “Fibrotic lung ECM upregulates SDC4/integrin-αvβ1 interaction and the interfering peptide SDC4_87-131 and its derivative peptides alleviate pulmonary fibrosis” (Regenerative Biomaterials, 2025)
